Assay results as given in the supplement of paper PMC10883282.
± gives the standard deviation of the averaged measurements.

System: SW982
Assay: relative viability vs DMSO control (72 h) (fraction); higher = more viable cells
Summary of the method: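 Relative viability is percent growth read by ATPLite and averaged over up to triplicate wells. Sarcoma cells were seeded in 384-well plates to reach 80–90% confluence and given 2.5 µl of serially diluted compound after 24 h, from source plates of 10 mM to 0.0002 mM. Incubation lasted 72 h at 37 °C, 5% CO2, with 0.1% DMSO vehicle and a 5 µM positive control, and the data were rescaled so 1 equals full and 0 equals none.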

Compound	relative viability (0.00017 µM)	relative viability (0.00051 µM)	relative viability (0.00152 µM)	relative viability (0.00457 µM)	relative viability (0.01372 µM)	relative viability (0.04115 µM)	relative viability (0.1235 µM)	relative viability (0.3704 µM)	relative viability (1.111 µM)	relative viability (3.333 µM)	relative viability (10 µM)
Cc1ccc(F)c(NC(=O)Nc2ccc(-c3cccc4[nH]nc(N)c34)cc2)c1 [Linifanib]	1.03 ± 0.027	1.08 ± 0.024	1.05 ± 0.035	1.07 ± 0.032	1.03 ± 0.021	1.06 ± 0.043	1.06 ± 0.019	1.08 ± 0.04	1.1 ± 0.036	1.12 ± 0.015	1.12 ± 0.04
CNC(=O)c1ccc(-c2cnc3ncc(Cc4ccc5ncccc5c4)n3n2)cc1F [Capmatinib]	1.04 ± 0.023	1.07 ± 0.045	1.07 ± 0.076	1.042 ± 0.0035	1.06 ± 0.067	1.03 ± 0.025	1.04 ± 0.028	1.06 ± 0.045	1.07 ± 0.06	1.06 ± 0.057	1.02 ± 0.024
CN1CCC(COc2cnc(-c3cccc(Cn4nc(-c5cccc(C#N)c5)ccc4=O)c3)nc2)CC1 [Tepotinib]	1.02 ± 0.025	1.07 ± 0.027	1.051 ± 0.0014	1.07 ± 0.029	1.04 ± 0.019	1.06 ± 0.019	1.062 ± 0.0073	1.03 ± 0.035	1.04 ± 0.059	1.02 ± 0.027	0.777 ± 0.025
N#CC[C@H](C1CCCC1)n1cc(-c2ncnc3[nH]ccc23)cn1 [Ruxolitinib]	0.96 ± 0.072	0.971 ± 0.05	0.964 ± 0.049	0.949 ± 0.054	0.939 ± 0.058	0.919 ± 0.061	0.915 ± 0.019	0.879 ± 0.02	0.842 ± 0.015	0.7741 ± 0.005	0.614 ± 0.022
CC(C)(C)c1cc(NC(=O)Nc2ccc(-c3cn4c(n3)sc3cc(OCCN5CCOCC5)ccc34)cc2)no1 [Quizartinib]	1.06 ± 0.028	1.05 ± 0.017	1.05 ± 0.03	1.05 ± 0.029	1.06 ± 0.017	1.06 ± 0.022	1.06 ± 0.027	1.04 ± 0.031	1.05 ± 0.017	1.05 ± 0.039	1.05 ± 0.039
COc1c(OCCCN2CCOCC2)ccc2c1N=C(NC(=O)c1cnc(N)nc1)N1CCN=C21 [Copanlisib]	1.04 ± 0.024	1.02 ± 0.022	1.04 ± 0.043	0.881 ± 0.016	0.797 ± 0.032	0.704 ± 0.029	0.529 ± 0.01	0.391 ± 0.019	0.213 ± 0.011	0.177 ± 0.0066	0.177 ± 0.0061
Cc1ccc(NC(=O)c2ccc(CN3CCN(C)CC3)cc2)cc1Nc1nc(-c2cccnc2)cs1 [Masitinib]	0.965 ± 0.027	0.996 ± 0.01	0.989 ± 0.015	0.983 ± 0.02	0.97 ± 0.026	0.961 ± 0.033	0.923 ± 0.025	0.89 ± 0.027	0.784 ± 0.045	0.513 ± 0.03	0.0613 ± 0.0081
Cn1cc(-c2cc3c(N4CCN(c5ncc([C@@](C)(N)c6ccc(F)cc6)cn5)CC4)ncnn3c2)cn1 [Avapritinib]	0.99 ± 0.026	0.956 ± 0.05	0.957 ± 0.093	0.93 ± 0.07	0.964 ± 0.061	0.962 ± 0.081	0.902 ± 0.033	0.928 ± 0.025	0.905 ± 0.044	0.894 ± 0.033	0.8071 ± 0.0062
O=C(Cc1ccc(-c2ccc(OCCN3CCOCC3)cc2)cn1)NCc1ccccc1 [KX2-391]	1.01 ± 0.037	1.07 ± 0.021	1.06 ± 0.04	1.06 ± 0.013	1.037 ± 0.0061	0.661 ± 0.02	0.299 ± 0.019	0.269 ± 0.017	0.265 ± 0.023	0.2804 ± 0.00064	0.278 ± 0.0036
CO[C@H]1C[C@@H]2CC[C@@H](C)[C@@](O)(O2)C(=O)C(=O)N2CCCC[C@H]2C(=O)O[C@H]([C@H](C)C[C@@H]2CC[C@@H](OP(C)(C)=O)[C@H](OC)C2)CC(=O)[C@H](C)/C=C(\C)[C@@H](O)[C@@H](OC)C(=O)[C@H](C)C[C@H](C)/C=C/C=C/C=C/1C [Ridaforolimus]	1.05 ± 0.027	0.956 ± 0.041	0.867 ± 0.06	0.825 ± 0.066	0.755 ± 0.074	0.711 ± 0.036	0.679 ± 0.015	0.652 ± 0.028	0.652 ± 0.019	0.619 ± 0.0085	0.634 ± 0.03
CCc1cc2c(cc1N1CCC(N3CCOCC3)CC1)C(C)(C)c1[nH]c3cc(C#N)ccc3c1C2=O [Alectinib]	1.05 ± 0.043	1.06 ± 0.035	1.058 ± 0.0041	1.06 ± 0.026	1.04 ± 0.022	1.05 ± 0.017	1.032 ± 0.0038	1.05 ± 0.022	1.07 ± 0.019	1.06 ± 0.038	1.06 ± 0.046
C[C@@H](c1ccc2nccn2c1)n1nnc2ncc(-c3cnn(C)c3)nc21 [Volitinib]	1.05 ± 0.02	1.07 ± 0.012	1.05 ± 0.012	1.05 ± 0.056	1.07 ± 0.03	1.06 ± 0.022	1.03 ± 0.021	1.07 ± 0.016	1.04 ± 0.034	1.07 ± 0.011	1.06 ± 0.025
CC1(C)CNc2cc(NC(=O)c3cccnc3NCc3ccncc3)ccc21 [Motesanib]	0.9792 ± 0.0014	0.972 ± 0.029	0.964 ± 0.039	0.964 ± 0.032	0.954 ± 0.013	0.933 ± 0.046	0.978 ± 0.042	0.965 ± 0.013	0.969 ± 0.033	0.9654 ± 0.0093	0.908 ± 0.086
CN1CCN(c2ccc3nc(-c4c(N)c5c(F)cccc5[nH]c4=O)[nH]c3c2)CC1 [Dovitinib]	1.02 ± 0.018	1.03 ± 0.041	1.01 ± 0.015	0.98 ± 0.027	1.01 ± 0.059	1.01 ± 0.059	0.94 ± 0.036	0.793 ± 0.012	0.483 ± 0.015	0.237 ± 0.022	0.0627 ± 0.033
CNC(=O)c1cc(Oc2ccc(NC(=O)Nc3ccc(Cl)c(C(F)(F)F)c3)c(F)c2)ccn1 [Regorafenib]	1.03 ± 0.017	1.09 ± 0.057	1.08 ± 0.043	1.1 ± 0.052	1.06 ± 0.032	1.08 ± 0.057	1.09 ± 0.044	1.09 ± 0.056	0.997 ± 0.037	0.8827 ± 0.0051	0.795 ± 0.0056
Cc1nc(NC(=O)N2CCC[C@H]2C(N)=O)sc1-c1ccnc(C(C)(C)C(F)(F)F)c1 [Alpelisib]	0.989 ± 0.04	0.929 ± 0.033	0.98 ± 0.021	0.95 ± 0.02	0.997 ± 0.014	0.959 ± 0.055	0.964 ± 0.031	0.927 ± 0.052	0.845 ± 0.026	0.725 ± 0.022	0.596 ± 0.026
CCN1CCN(Cc2ccc(Nc3ncc(F)c(-c4cc(F)c5nc(C)n(C(C)C)c5c4)n3)nc2)CC1 [Abemaciclib]	1.05 ± 0.036	1.06 ± 0.046	1.04 ± 0.043	1.06 ± 0.041	1.07 ± 0.035	0.987 ± 0.031	0.787 ± 0.046	0.593 ± 0.02	0.469 ± 0.013	0.302 ± 0.12	0.0803 ± 0.12
CC[C@H](Nc1ncnc2[nH]cnc12)c1nc2cccc(F)c2c(=O)n1-c1ccccc1 [Idelalisib]	1.06 ± 0.033	1.06 ± 0.039	1.05 ± 0.039	1.07 ± 0.027	1.07 ± 0.055	1.08 ± 0.033	1.07 ± 0.04	1.067 ± 0.0099	1 ± 0.029	0.948 ± 0.074	0.778 ± 0.011
C=CC(=O)N1CCC[C@@H](n2nc(-c3ccc(Oc4ccccc4)cc3)c3c(N)ncnc32)C1 [Ibrutinib]	1.02 ± 0.016	1.06 ± 0.039	1.07 ± 0.011	1.05 ± 0.035	1.03 ± 0.033	1.05 ± 0.02	1.05 ± 0.035	1.06 ± 0.051	1.08 ± 0.036	1.04 ± 0.027	0.845 ± 0.044
